Our source for the IC50 values is patent US20210395313A1, “PEPTIDE PAC1 ANTAGONISTS” (AMGEN INC., priority 2017, published 2021).

One experiment has as its target T1, human PAC1 receptor (Homo sapiens, UniProt P41586).
T1 construct: SHSY-5Y (human neuroblastoma cell line) and RG-2 (rat glioma cell line) cells endogenously express human and rat PAC1 receptors, respectively; endogenous in cells; host or cells: SHSY-5Y human neuroblastoma cells
T1 sequence (P41586 21-468): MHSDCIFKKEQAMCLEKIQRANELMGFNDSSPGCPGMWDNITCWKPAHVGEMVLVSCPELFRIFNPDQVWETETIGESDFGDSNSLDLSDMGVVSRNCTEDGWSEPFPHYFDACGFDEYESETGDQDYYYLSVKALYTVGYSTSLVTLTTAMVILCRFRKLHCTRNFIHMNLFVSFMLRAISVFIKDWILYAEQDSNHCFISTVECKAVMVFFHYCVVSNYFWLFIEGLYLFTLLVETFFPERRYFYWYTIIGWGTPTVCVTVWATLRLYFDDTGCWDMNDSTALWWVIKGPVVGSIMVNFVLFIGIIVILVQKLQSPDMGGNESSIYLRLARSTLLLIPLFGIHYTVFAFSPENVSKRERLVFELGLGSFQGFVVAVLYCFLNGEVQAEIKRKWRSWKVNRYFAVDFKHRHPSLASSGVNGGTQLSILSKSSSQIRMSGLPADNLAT
Briefly: LANCE Ultra cAMP accumulation antagonist assay in SHSY-5Y cells.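 Note: inhibition of cAMP accumulation evoked by PAC1 agonist at its EC80 in SHSY-5Y cells endogenously expressing receptor, 30 min preincubation then 15 min agonist, TR-FRET readout.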 The experiment is classed as cell-based. Background: TR-FRET usually uses a lanthanide donor and a delayed reading to cut background.

The next experiment concerns the target T2, rat PAC1 receptor (Rattus norvegicus, UniProt P32215).
T2 construct: SHSY-5Y (human neuroblastoma cell line) and RG-2 (rat glioma cell line) cells endogenously express human and rat PAC1 receptors, respectively; endogenous in cells; host or cells: RG-2 rat glioma cells
T2 sequence (P32215 20-523): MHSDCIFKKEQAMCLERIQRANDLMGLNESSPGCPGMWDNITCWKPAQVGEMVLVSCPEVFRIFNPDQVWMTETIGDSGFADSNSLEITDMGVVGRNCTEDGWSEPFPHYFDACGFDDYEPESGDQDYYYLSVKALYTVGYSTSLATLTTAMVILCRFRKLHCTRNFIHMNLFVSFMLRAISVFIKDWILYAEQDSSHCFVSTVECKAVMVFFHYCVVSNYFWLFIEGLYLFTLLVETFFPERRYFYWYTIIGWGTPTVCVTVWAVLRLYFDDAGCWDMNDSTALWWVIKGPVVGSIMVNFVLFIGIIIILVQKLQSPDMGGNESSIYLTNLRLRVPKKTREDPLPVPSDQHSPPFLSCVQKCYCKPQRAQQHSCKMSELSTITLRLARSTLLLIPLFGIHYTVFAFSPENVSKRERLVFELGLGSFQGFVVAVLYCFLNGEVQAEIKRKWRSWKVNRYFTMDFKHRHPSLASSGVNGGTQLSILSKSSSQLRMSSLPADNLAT
The experiment in a line: LANCE Ultra cAMP accumulation antagonist assay in RG-2 cells.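 Note: RG-2 rat glioma cells endogenously expressing PAC1, test peptide preincubated 30 min, then PAC1 agonist added at its EC80 for 15 min, cAMP accumulation read by LANCE Ultra.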 The experiment is classed as cell-based.

pIC50: −log10 of the molar value. Where a SMILES comes first, the peptide text is derived from it. Bridges are numbered along the chain shown (N, C = ends). Where no end group is shown, it is not given here.

For orientation: pIC50 means −log10 of the IC50, conventionally taken in molar units. Read a low pIC50 as a high IC50. `CC[C@H](C)[C@H](NC(=O)[C@H](C)NC(=O)[C@H](CCCCN)NC(=O)[C@H](CCCNC(=N)N)NC(=O)[C@H](Cc1ccccc1)NC(=O)[C@H](CCC(N)=O)NC(=O)[C@@H]1CSSC[C@H](N)C(=O)N[C@@H](CC(=O)O)C(=O)N[C@@H](C)C(=O)N[C@@H]([C@@H](C)O)C(=O)N1)C(=O)N[C@@H](CC(=O)O)C(=O)N[C@@H](CC(=O)O)C(=O)N[C@H]1CSSC[C@@H](C(=O)N[C@@H](CCSC)C(=O)N[C@@H](CCCCN)C(=O)N[C@@H](CCC(N)=O)C(=O)N[C@@H](CCCCN)C(=O)N[C@@H](CCCCN)C(=O)N[C@@H](CCCCN)C(=O)N[C@@H](CCC(=O)O)C(=O)N[C@@H](Cc2ccccc2)C(=O)N[C@@H](CCCCN)C(N)=O)NC(=O)[C@H](CCC(=O)O)NC(=O)[C@H](CCCCN)NC(=O)[C@H](Cc2ccccc2)NC(=O)[C@H](C(C)C)NC(=O)[C@H](CO)NC(=O)[C@H](CC(N)=O)NC(=O)CNC(=O)[C@@H]2CCCN2C(=O)[C@H](C(C)C)NC(=O)[C@H](CC(N)=O)NC(=O)[C@H](CO)NC(=O)[C@H](Cc2c[nH]cn2)NC(=O)[C@H](Cc2c[nH]cn2)NC(=O)[C@H](C)NC(=O)[C@H](CCC(N)=O)NC(=O)[C@H](CCCCN)NC(=O)[C@H](CC(=O)O)NC1=O` [compound 295]: the figures for the negative logarithm of the IC50 (pIC50) against human PAC1 receptor and against rat PAC1 receptor were 7.00 to 9.00 and 9.00 to 11.00, respectively.

As for `CC[C@H](C)[C@H](NC(=O)[C@H](C)NC(=O)[C@H](CCCCN)NC(=O)[C@H](CCCNC(=N)N)NC(=O)[C@H](Cc1ccccc1)NC(=O)[C@H](CCC(N)=O)NC(=O)[C@@H]1CSSC[C@H](N)C(=O)N[C@@H](CC(=O)O)C(=O)N[C@@H](C)C(=O)N[C@@H]([C@@H](C)O)C(=O)N1)C(=O)N[C@@H](CC(=O)O)C(=O)N[C@@H](CC(=O)O)C(=O)N[C@H]1CSSC[C@@H](C(=O)N[C@@H](CCSC)C(=O)N[C@@H](CCCCN)C(=O)N[C@@H](CCC(N)=O)C(=O)N[C@@H](CCCCN)C(=O)N[C@@H](CCCCN)C(=O)N[C@@H](CCCCN)C(=O)N[C@@H](CCC(=O)O)C(=O)N[C@@H](Cc2ccccc2)C(=O)N[C@@H](CCCCN)C(=O)N[C@@H](C)C(=O)NCC(N)=O)NC(=O)[C@H](C)NC(=O)[C@H](CCCCN)NC(=O)[C@H](Cc2ccccc2)NC(=O)[C@H](CO)NC(=O)[C@H](CO)NC(=O)[C@H](Cc2c[nH]cn2)NC(=O)[C@H](Cc2c[nH]c3ccccc23)NC(=O)[C@H](CO)NC(=O)[C@H](CCCNC(=N)N)NC(=O)[C@H](Cc2ccc(O)cc2)NC(=O)[C@H](Cc2ccc(O)cc2)NC1=O` [compound 63] (H-CDATCQFRKAIDDCYYRSWHSSFKACMKQKKKEFKAG-NH2; disulfide 1-5, 14-26), the pIC50 on human PAC1 receptor and against rat PAC1 receptor was 9.00 to 11.00 throughout.

Turning to `CC[C@H](C)[C@H](NC(=O)[C@H](C)NC(=O)[C@H](CCCCN)NC(=O)[C@H](CCCNC(=N)N)NC(=O)[C@H](Cc1ccccc1)NC(=O)[C@H](CCC(N)=O)NC(=O)[C@@H]1CSSC[C@H](N)C(=O)N[C@@H](CC(=O)O)C(=O)N[C@@H](C)C(=O)N[C@@H]([C@@H](C)O)C(=O)N1)C(=O)N[C@@H](CC(=O)O)C(=O)N[C@@H](CC(=O)O)C(=O)N[C@H]1CSSC[C@@H](C(=O)N[C@@H](CCSC)C(=O)N[C@@H](CCCCN)C(=O)N[C@@H](CCC(N)=O)C(=O)N[C@@H](CCCCN)C(=O)N[C@@H](CCCCN)C(=O)N[C@@H](CCCCN)C(=O)N[C@@H](CCC(=O)O)C(=O)N[C@@H](Cc2ccccc2)C(=O)N[C@@H](CCCCN)C(=O)N[C@@H](C)C(=O)NCC(=O)N[C@@H](Cc2ccc(O)cc2)C(=O)O)NC(=O)[C@H](C)NC(=O)[C@H](CCCCN)NC(=O)[C@H](Cc2ccccc2)NC(=O)[C@H](C(C)C)NC(=O)[C@H](CO)NC(=O)[C@H](CO)NC(=O)[C@H](Cc2c[nH]cn2)NC(=O)[C@H](Cc2c[nH]cn2)NC(=O)[C@H](C)NC(=O)[C@H](CCC(N)=O)NC(=O)[C@H](CCCCN)NC(=O)[C@H](C)NC1=O` [compound 29] (H-CDATCQFRKAIDDCAKQAHHSSVFKACMKQKKKEFKAGY-OH; disulfide 1-5, 14-27), the pIC50 on human PAC1 receptor and against rat PAC1 receptor was 9.00 to 11.00 in each case.

Regarding “CDATCQFRKAIDDCVWFAWHSNVPGSVFKACMKQKKKEFKAG-NH2 (disulfide 1-5, 14-31) [compound 148]”, the negative logarithm of the IC50 (pIC50) against human PAC1 receptor and on rat PAC1 receptor was 9.00 to 11.00 throughout.

For the molecule “CDATCQFRKAIDDCYYRSRHSNVPGSVFKACMKQKKKEFKAG-NH2 (disulfide 1-5, 14-31) [compound 44]”, the pIC50 was 9.00 to 11.00 on human PAC1 receptor and > 11.00 at rat PAC1 receptor.

As for “CDATCQFRKAIDDCQKQAHHSNVPGSVFKACMKQKKKEFKAGQ (disulfide 1-5, 14-31) [compound 174]”, the values for the pIC50 against human PAC1 receptor and at rat PAC1 receptor were 7.00 to 9.00 and 9.00 to 11.00, respectively.

“CDATCQFRKAIDDCYYRAWHSNVPGSVFKACMKQKKKEFKAG-NH2 (disulfide 1-5, 14-31) [compound 104]”: the pIC50 against human PAC1 receptor and against rat PAC1 receptor was 9.00 to 11.00 each time.

In the case of `CC[C@H](C)[C@H](NC(=O)[C@H](C)NC(=O)[C@H](CCCCN)NC(=O)[C@H](CCCNC(=N)N)NC(=O)[C@H](Cc1ccccc1)NC(=O)[C@H](CCC(N)=O)NC(=O)[C@@H]1CSSC[C@H](N)C(=O)N[C@@H](CC(=O)O)C(=O)N[C@@H](C)C(=O)N[C@@H]([C@@H](C)O)C(=O)N1)C(=O)N[C@@H](CC(=O)O)C(=O)N[C@@H](CC(=O)O)C(=O)N[C@H]1CSSC[C@@H](C(=O)N[C@@H](CCSC)C(=O)N[C@@H](CCCCN)C(=O)N[C@@H](CCC(N)=O)C(=O)N[C@@H](CCCCN)C(=O)N[C@@H](CCCCN)C(=O)N[C@@H](CCCCN)C(=O)N[C@@H](CCC(=O)O)C(=O)N[C@@H](Cc2c[nH]c3ccccc23)C(=O)N[C@@H](CCCCN)C(=O)N[C@@H](C)C(=O)NCC(N)=O)NC(=O)[C@H](C)NC(=O)[C@H](CCCCN)NC(=O)[C@H](Cc2ccccc2)NC(=O)[C@H](CO)NC(=O)[C@H](CO)NC(=O)[C@H](Cc2c[nH]cn2)NC(=O)[C@H](Cc2ccc(O)cc2)NC(=O)[C@H](C)NC(=O)[C@H](CCC(N)=O)NC(=O)[C@H](CCCNC(=N)N)NC(=O)[C@H](C)NC1=O` [compound 20] (H-CDATCQFRKAIDDCARQAYHSSFKACMKQKKKEWKAG-NH2; disulfide 1-5, 14-26), the negative-log IC50 (pIC50) against human PAC1 receptor and against rat PAC1 receptor was 9.00 to 11.00 each time.

In the case of `CC[C@H](C)[C@H](NC(=O)[C@H](C)NC(=O)[C@H](CCCCN)NC(=O)[C@H](CCCNC(=N)N)NC(=O)[C@H](Cc1ccccc1)NC(=O)[C@H](CCC(N)=O)NC(=O)[C@@H]1CSSC[C@H](N)C(=O)N[C@@H](CC(=O)O)C(=O)N[C@@H](C)C(=O)N[C@@H]([C@@H](C)O)C(=O)N1)C(=O)N[C@@H](CC(=O)O)C(=O)N[C@@H](CC(=O)O)C(=O)N[C@H]1CSSC[C@@H](C(=O)N[C@@H](CCSC)C(=O)N[C@@H](CCCCN)C(=O)N[C@@H](CCC(N)=O)C(=O)N[C@@H](CCCCN)C(=O)N[C@@H](CCCCN)C(=O)N[C@@H](CCCCN)C(=O)N[C@@H](CCC(=O)O)C(=O)N[C@@H](Cc2ccccc2)C(=O)N[C@@H](CCCCN)C(N)=O)NC(=O)[C@H](CCC(=O)O)NC(=O)[C@H](CCCCN)NC(=O)[C@H](Cc2ccccc2)NC(=O)[C@H](C(C)C)NC(=O)[C@H](CO)NC(=O)CNC(=O)[C@@H]2CCCN2C(=O)[C@H](C(C)C)NC(=O)[C@H](CC(N)=O)NC(=O)[C@H](CO)NC(=O)[C@H](Cc2c[nH]cn2)NC(=O)[C@H](Cc2c[nH]cn2)NC(=O)[C@H](C)NC(=O)[C@H](CCC(N)=O)NC(=O)[C@H](CCCCN)NC(=O)[C@H](CCC(N)=O)NC1=O` [compound 293], the results for the pIC50 at human PAC1 receptor and on rat PAC1 receptor were 7.00 to 9.00 and 9.00 to 11.00, respectively.

In the case of “CDATCQFRKAIDDCQKQAHHSNVPGSVFKACMVQKKKEFKAG-NH2 (disulfide 1-5, 14-31) [compound 102]”, the pIC50 against human PAC1 receptor was 7.00 to 9.00; against rat PAC1 receptor, 9.00 to 11.00.
